Measurements from ChEMBL document CHEMBL1153213, “Inhibition of CTP synthase from Escherichia coli by xanthines and uric acids” (Bioorg Med Chem Lett, 2010).
The source made the active and inactive calls. The calls are words filed in the database; no cut-off is given here.

Assays:
[1] = Inhibition of Escherichia coli recombinant N-terminal hexahistidine-tagged CTP synthetase expressed in Escherichia coli BL21 (DE3) assessed as inhibition of CTP formation by continuous spectrophotometric assay in presence of 10 mM L-glutamine and 0.15 mM GTP
[2] = Inhibition of Escherichia coli recombinant N-terminal hexahistidine-tagged CTP synthetase expressed in Escherichia coli BL21 (DE3) assessed as inhibition of CTP formation by continuous spectrophotometric assay in presence of 150 mM NH4Cl
[3] = Inhibition of Escherichia coli recombinant N-terminal hexahistidine-tagged CTP synthetase expressed in Escherichia coli BL21 (DE3) assessed as inhibition of CTP formation in TAPS buffer at pH 8.5 by continuous spectrophotometric assay in presence of 150 mM NH4Cl
[4] = Inhibition of Escherichia coli recombinant N-terminal hexahistidine-tagged CTP synthetase expressed in Escherichia coli BL21 (DE3) assessed as inhibition of CTP formation in Hepes buffer at pH 8 by continuous spectrophotometric assay in presence of 10 mM L-glutamine and 0.15 mM GTP
[5] = Inhibition of Escherichia coli recombinant N-terminal hexahistidine-tagged CTP synthetase expressed in Escherichia coli BL21 (DE3) assessed as inhibition of CTP formation in Hepes buffer at pH 8 by continuous spectrophotometric assay in presence of 150 mM NH4Cl
[6] = Inhibition of Escherichia coli recombinant N-terminal hexahistidine-tagged CTP synthetase expressed in Escherichia coli BL21 (DE3) assessed as inhibition of CTP formation in TAPS buffer at pH 8.5 by continuous spectrophotometric assay in presence of 10 mM L-glutamine and 0.15 mM GTP
Escherichia coli [7] = test: Inhibition of Escherichia coli recombinant N-terminal hexahistidine-tagged CTP synthetase expressed in Escherichia coli BL21 (DE3) assessed as inhibition of CTP formation at 1 mM in presence of 1mM UTP
[8] = Multisite inhibition of Escherichia coli recombinant N-terminal hexahistidine-tagged CTP synthetase expressed in Escherichia coli BL21 (DE3) assessed as inhibition of CTP formation in Hepes buffer at pH 8 in presence of 2.72 mM NH4Cl
[9] = Multisite inhibition of Escherichia coli recombinant N-terminal hexahistidine-tagged CTP synthetase expressed in Escherichia coli BL21 (DE3) assessed as inhibition of CTP formation in Hepes buffer at pH 8 in presence of 5.44 mM NH4Cl
[10] = Multisite inhibition of Escherichia coli recombinant N-terminal hexahistidine-tagged CTP synthetase expressed in Escherichia coli BL21 (DE3) assessed as inhibition of CTP formation in Hepes buffer at pH 8 in presence of 0.54 mM NH4Cl
Escherichia coli [11] = test: Inhibition of Escherichia coli recombinant N-terminal hexahistidine-tagged CTP synthetase expressed in Escherichia coli BL21 (DE3) assessed as inhibition of CTP formation at 1 mM in presence of 1mM ATP
[12] = Multisite inhibition of Escherichia coli recombinant N-terminal hexahistidine-tagged CTP synthetase expressed in Escherichia coli BL21 (DE3) assessed as inhibition of CTP formation in Hepes buffer at pH 8 in presence of 8.16 mM NH4Cl
[13] = Multisite inhibition of Escherichia coli recombinant N-terminal hexahistidine-tagged CTP synthetase expressed in Escherichia coli BL21 (DE3) assessed as inhibition of CTP formation in Hepes buffer at pH 8 in presence of 1.36 mM NH4Cl

NC(=O)NC1NC(=O)NC1=O (stereo unspecified) [ALLANTOIN]
IC50 [1]: Not Active
IC50 [2]: Not Active

Cn1c(=O)c2[nH]c(=O)[nH]c2n(C)c1=O
IC50 [3]: 99 µM
IC50 [4]: 88 µM
IC50 [5]: 72 µM
IC50 [6]: 64 µM

Oc1nc(O)c2nc(O)[nH]c2n1 [URIC ACID]
IC50 [3]: 113 µM
IC50 [4]: 60 µM
IC50 [5]: 87 µM
IC50 [6]: 60 µM

Cn1c(=O)c2c(ncn2C)n(C)c1=O [CAFFEINE]
inhibition (Escherichia coli [7]): inactive
IC50 [8]: 420 µM
IC50 ([1]; read-out: IC50): 390 µM
IC50 [9]: 450 µM
IC50 [10]: 440 µM
inhibition (Escherichia coli [11]): inactive
IC50 ([2]; read-out: IC50): 510 µM
IC50 [12]: 440 µM
IC50 [13]: 450 µM

O=c1cc[nH]c(=O)[nH]1 [URACIL]
IC50 ([1]; read-out: IC50): 4200 µM
IC50 ([2]; read-out: IC50): 4700 µM

Cn1c(=O)[nH]c2ncn(C)c2c1=O [PARAXANTHINE]
IC50 [3]: 360 µM
IC50 [4]: 440 µM
IC50 [5]: 480 µM
IC50 [6]: 200 µM

O=C(O)Cc1cc(=O)[nH]c(=O)[nH]1
IC50 ([1]; read-out: IC50): 2600 µM
IC50 ([2]; read-out: IC50): 3170 µM

O=c1[nH]c(=O)c2nc[nH]c2[nH]1 [XANTHINE]
IC50 [3]: 220 µM
IC50 [4]: 230 µM
IC50 [5]: 370 µM
IC50 [6]: 160 µM

Cn1c(=O)c2nc[nH]c2n(C)c1=O [THEOPHYLLINE]
IC50 [3]: 400 µM
IC50 [4]: 430 µM
IC50 [5]: 550 µM
IC50 [6]: 300 µM

Cn1c(=O)[nH]c2[nH]c(=O)n(C)c2c1=O
IC50 [3]: 109 µM
IC50 [4]: 113 µM
IC50 [5]: 119 µM
IC50 [6]: 61 µM

Nc1ncnc2c1ncn2[C@@H]1O[C@H](CO)[C@@H](O)[C@H]1O [ADENOSINE]
IC50 ([2]; read-out: IC50): 11000 µM

Cn1cnc2c1c(=O)[nH]c(=O)n2C [THEOBROMINE]
IC50 ([1]; read-out: IC50): 420 µM
IC50 ([2]; read-out: IC50): 580 µM

Nc1[nH]cnc2ncnc1-2 [ADENINE]
IC50 ([1]; read-out: IC50): 15800 µM
IC50 ([2]; read-out: IC50): 12900 µM

Cn1c(=O)c2c(n(C)c1=O)n(C)c(=O)n2C
IC50 ([1]; read-out: IC50): 79 µM
IC50 ([2]; read-out: IC50): 121 µM

O=c1ccn([C@@H]2O[C@H](CO)[C@@H](O)[C@H]2O)c(=O)[nH]1 [URIDINE]
IC50 ([1]; read-out: IC50): 3100 µM
IC50 ([2]; read-out: IC50): 4600 µM

Cn1c(=O)c2c([nH]c(=O)n2C)n(C)c1=O
IC50 ([1]; read-out: IC50): 67 µM
IC50 ([2]; read-out: IC50): 70 µM

Cn1c(=O)[nH]c(=O)c2c1[nH]c(=O)n2C
inhibition (Escherichia coli [7]): inactive
IC50 ([1]; read-out: IC50): 63 µM
inhibition (Escherichia coli [11]): inactive
IC50 ([2]; read-out: IC50): 90 µM

Cn1c(=O)[nH]c2[nH]c(=O)[nH]c2c1=O
IC50 ([1]; read-out: IC50): 101 µM
IC50 ([2]; read-out: IC50): 96 µM
